From US8778964B2, “Hydroxy-substituted imidazo[1,2-a]-pyridinecarboxamides and their use” (Bayer Pharma Aktiengesellschaft, priority 2012, dated 2014)
Structures can show the parent of a compound that is named as a salt.

The compounds below were run on recombinant guanylate cyclase reporter cell line (assay: Action on recombinant guanylate cyclase reporter cell line (MEC)). Conditions: in some cases mean values obtained from individual determinations.
Type: cell-based
Summary of the method: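 Cell-based reporter assay with recombinant guanylate cyclase expressed in a reporter cell line, per a published method. Activity reported as minimal effective concentration (MEC), in some cases as the mean of individual determinations.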
Compound `Cc1nc2c(OCc3c(F)cccc3F)cccn2c1C(=O)N[C@H]1CC[C@H](O)CC1` [Example 42, (rac)-8-[(2,6-difluorobenzyl)oxy]-N-(trans-4-hydroxycyclohexyl)-2-methylimidazo[1,2-a]-pyridine-3-carboxamide] has a minimal effective concentration of 1 µM.
For `Cc1nc2c(OCc3c(F)cccc3F)cccn2c1C(=O)NCCOCCO` [Example 24, 8-[(2,6-difluorobenzyl)oxy]-N-[2-(2-hydroxy-ethoxy)ethyl]-2-methylimidazo[1,2-a]pyridine-3-carboxamide], the minimal effective concentration was 1 µM.
`Cc1nc2c(OCC3CCCCC3)cccn2c1C(=O)NC[C@@H](O)CO` [Example 80, 8-(cyclohexylmethoxy)-N-[(2R)-2,3-dihydroxypropyl]-2-methylimidazo[1,2-a]pyridine-3-carboxamide] was tested, and the minimal effective concentration was 0.3 µM.
Compound `CCCC[C@H](CO)NC(=O)c1c(C)nc2c(OCc3c(F)cccc3F)cccn12` [Example 1, 8-[(2,6-Difluorobenzyl)oxy]-N-[(2R)-1-hydroxyhexan-2-yl]-2-methylimidazo[1,2-a]pyridine-3-carboxamide] has a minimal effective concentration of 0.05 µM.
With `Cc1nc2c(OCC3CCCCC3)cccn2c1C(=O)N[C@H](CO)C(C)C` [Example 93, 8-(cyclohexylmethoxy)-N-[(2S)-1-hydroxy-3-methylbutan-2-yl]-2-methylimidazo[1,2-a]pyridine-3-carboxamide] the minimal effective concentration was 1 µM.
`C=CCC(CO)NC(=O)c1c(C)nc2c(OCC3CCCCC3)cccn12` (racemic) [Example 70, (rac)-8-(cyclohexylmethoxy)-N-(1-hydroxypent-4-en-2-yl)-2-methylimidazo[1,2-a]pyridine-3-carboxamide] showed a minimal effective concentration of 0.1 µM.
`CCCC[C@H](CO)NC(=O)c1c(C)nc2c(OCc3c(F)cccc3F)cc(C)cn12` [Example 133, 8-[(2,6-difluorobenzyl)oxy]-N-[(2R)-1-hydroxyhexan-2-yl]-2,6-dimethylimidazo[1,2-a]pyridine-3-carboxamide] showed a minimal effective concentration of 0.01 µM.
`CCCC[C@H](CO)NC(=O)c1c(C)nc2c(OCc3c(F)cccc3F)cc(Br)cn12` [Example 65, 6-bromo-8-[(2,6-difluorobenzyl)oxy]-N-[(2R)-1-hydroxyhexan-2-yl]-2-methylimidazo[1,2-a]pyridine-3-carboxamide] showed a minimal effective concentration of 0.03 µM.
With `Cc1nc2c(OCC3CCCCC3)cccn2c1C(=O)NC(C)(C)C(C)O` (stereo not shown) [Example 87, 8-(cyclohexylmethoxy)-N-(3-hydroxy-2-methylbutan-2-yl)-2-methylimidazo[1,2-a]pyridine-3-carboxamide] the minimal effective concentration was 1 µM.
For `CCCC[C@H](CO)NC(=O)c1c(C)nc2c(OCc3cccc(F)c3F)cccn12` [Example 10, 8-[(2,3-difluorobenzyl)oxy]-N-[(2R)-1-hydroxyhexan-2-yl]-2-methylimidazo[1,2-a]pyridine-3-carboxamide], the minimal effective concentration was 0.3 µM.
In the case of `CCCC[C@H](CO)NC(=O)c1c(C)nc2c(OCCC(C)C)cc(C)cn12` [Example 166, N-[(2R)-1-Hydroxyhexan-2-yl]-2,6-dimethyl-8-(3-methylbutoxy)imidazo[1,2-a]pyridine-3-carboxamide], the minimal effective concentration was 1 µM.
Work on `CCCCC(NC(=O)c1c(C)nc2c(OC(C)c3c(F)cccc3F)cc(C)cn12)C(C)(C)O` (single isomer, unassigned; ent-8) [Example 171, ent-8-[1-(2,6-Difluorophenyl)ethoxy]-N-(2-hydroxy-2-methylheptan-3-yl)-2,6-dimethylimidazo-[1,2-a]pyridine-3-carboxamide] yielded a minimal effective concentration of 1 µM.
For `Cc1nc2c(OCc3c(F)cccc3F)cccn2c1C(=O)NC(CO)CC(F)(F)F` (single isomer, unassigned; ent-8) [Example 121, ent-8-[(2,6-Difluorobenzyl)oxy]-2-methyl-N-(4,4,4-trifluoro-1-hydroxybutan-2-yl)imidazo[1,2-a]-pyridine-3-carboxamide], the minimal effective concentration was 0.03 µM.
For `CCc1nc2c(OCC3CCCCC3)cccn2c1C(=O)N[C@H](C)CO` [Example 55, 8-(Cyclohexylmethoxy)-2-ethyl-N-[(2R)-1-hydroxypropan-2-yl]imidazo[1,2-a]pyridine-3-carboxamide formic acid salt], the minimal effective concentration was 0.1 µM.
`Cc1nc2c(OCc3c(F)cccc3F)cccn2c1C(=O)NCCCO` [Example 22, 8-[(2,6-difluorobenzyl)oxy]-N-(3-hydroxy-propyl)-2-methylimidazo[1,2-a]pyridine-3-carboxamide] gave a minimal effective concentration of 1 µM.
`CCCC[C@H](CO)NC(=O)c1c(C)nc2c(OCc3c(F)cccc3F)cc(C3CC3)cn12` [Example 61, 6-cyclopropyl-8-[(2,6-difluorobenzyl)oxy]-N-[(2R)-1-hydroxyhexan-2-yl]-2-methylimidazo[1,2-a]pyridine-3-carboxamide] showed a minimal effective concentration of 1 µM.
`Cc1nc2c(OCc3c(F)cccc3F)cccn2c1C(=O)NC(CO)c1cccnc1` (racemic) [Example 124, rac-8-[(2,6-Difluorobenzyl)oxy]-N-[2-hydroxy-1-(pyridin-3-yl)ethyl]-2-methylimidazo[1,2-a]-pyridine-3-carboxamide] showed a minimal effective concentration of 0.3 µM.
Work on `CC[C@H](CO)NC(=O)c1c(C)nc2c(OCc3cccc(F)c3F)cccn12` [Example 44, 8-[(2,3-difluorobenzyl)oxy]-N-[(2R)-1-hydroxybutan-2-yl]-2-methylimidazo[1,2-a]-pyridine-3-carboxamide] yielded a minimal effective concentration of 0.3 µM.
For `Cc1nc2c(OCc3ccccc3Cl)cccn2c1C(=O)NC(CO)CO` [Example 50, 8-[(2-chlorobenzyl)oxy]-N-(1,3-dihydroxypropan-2-yl)-2-methylimidazo[1,2-a]pyridine-3-carboxamide], the minimal effective concentration was 6.5 µM.
For `Cc1nc2c(OCc3c(F)cccc3F)cccn2c1C(=O)N[C@@H](CO)CCCO` [Example 130, 8-[(2,6-difluorobenzyl)oxy]-N-[(2R)-1,5-dihydroxypentan-2-yl]-2-methylimidazo[1,2-a]pyridine-3-carboxamide], the minimal effective concentration was 1 µM.
Work on `Cc1nc2c(OCC3CCC3)cccn2c1C(=O)NCCC1(O)CCCC1` [Example 97, 8-(cyclobutylmethoxy)-N-[2-(1-hydroxycyclopentyl)ethyl]-2-methylimidazo[1,2-a]pyridine-3-carboxamide] yielded a minimal effective concentration of 1 µM.
In the case of `CCC[C@H](CO)NC(=O)c1c(C)nc2c(OCC3CCCCC3)cccn12` [Example 67, 8-(cyclohexylmethoxy)-N-[(2R)-1-hydroxypentan-2-yl]-2-methylimidazo[1,2-a]pyridine-3-carboxamide], the minimal effective concentration was 0.03 µM.
In the case of `CCC(C)[C@H](CO)NC(=O)c1c(C)nc2c(OCC3CCCCC3)cccn12` (stereo partly drawn) [Example 96, 8-(cyclohexylmethoxy)-N-[(2R)-1-hydroxy-3-methylpentan-2-yl]-2-methylimidazo[1,2-a]pyridine-3-carboxamide], the minimal effective concentration was 3 µM.
`CC[C@H](C)[C@@H](CO)NC(=O)c1c(C)nc2c(OCC3CCCCC3)cccn12` [Example 91, 8-(cyclohexylmethoxy)-N-[(2S,3S)-1-hydroxy-3-methylpentan-2-yl]-2-methylimidazo[1,2-a]pyridine-3-carboxamide] showed a minimal effective concentration of 1 µM.
With `Cc1nc2c(OCc3ccccc3)cccn2c1C(=O)NCCC1(O)CCCC1` [Example 48, 8-(benzyloxy)-N-[2-(1-hydroxycyclopentyl)ethyl]-2-methylimidazo[1,2-a]pyridine-3-carboxamide] the minimal effective concentration was 1 µM.
In the case of `CCOCC(CO)NC(=O)c1c(C)nc2c(OCc3c(F)cccc3F)cccn12` (racemic) [Example 160, rac-8-[(2,6-Difluorobenzyl)oxy]-N-(1-ethoxy-3-hydroxypropan-2-yl)-2-methylimidazo[1,2-a]-pyridine-3-carboxamide], the minimal effective concentration was 0.3 µM.
`CCCC[C@@H](NC(=O)c1c(C)nc2c(OCc3c(F)cccc3F)cccn12)C(O)C(F)(F)F` (stereo partly drawn) [Example 142, 8-[(2,6-Difluorobenzyl)oxy]-2-methyl-N-[(3R)-1,1,1-trifluoro-2-hydroxyheptan-3-yl]imidazo[1,2-a]pyridine-3-carboxamide] gave a minimal effective concentration of 0.1 µM.
For `CC[C@H](CO)NC(=O)c1c(C)nc2c(OCC3CCCCC3)cccn12` [Example 72, 8-(cyclohexylmethoxy)-N-[(2R)-1-hydroxybutan-2-yl]-2-methylimidazo[1,2-a]pyridine-3-carboxamide], the minimal effective concentration was 0.1 µM.
Compound `Cc1nc2c(OCC3CCCCC3)cccn2c1C(=O)NCCCCO` [Example 74, 8-(cyclohexylmethoxy)-N-(4-hydroxybutyl)-2-methylimidazo[1,2-a]pyridine-3-carboxamide] has a minimal effective concentration of 0.2 µM.
With `Cc1nc2c(OCc3c(F)cccc3F)cccn2c1C(=O)NCC(O)C(F)(F)F` (racemic) [Example 106, rac-8-[(2,6-difluorobenzyl)oxy]-2-methyl-N-(3,3,3-trifluoro-2-hydroxypropyl)imidazo[1,2-a]pyridine-3-carboxamide trifluoroacetate] the minimal effective concentration was 0.3 µM.
`Cc1nc2c(OCC3CCCCC3)cccn2c1C(=O)NC(CO)CO` [Example 85, 8-(cyclohexylmethoxy)-N-(1,3-dihydroxypropan-2-yl)-2-methylimidazo[1,2-a]pyridine-3-carboxamide] showed a minimal effective concentration of 0.38 µM.
`CCCC[C@H](CO)NC(=O)c1c(C)nc2c(OCc3cccc(F)c3)cccn12` [Example 6, 8-[(3-fluorobenzyl)-oxy]-N-[(2R)-1-hydroxyhexan-2-yl]-2-methylimidazo[1,2-a]pyridine-3-carboxamide] showed a minimal effective concentration of 0.1 µM.
For `Cc1nc2c(OCc3c(F)cccc3F)cc(Cl)cn2c1C(=O)N[C@@H](CO)CCO` [Example 128, 6-chloro-8-[(2,6-difluorobenzyl)oxy]-N-[(2R)-1,4-dihydroxybutan-2-yl]-2-methylimidazo[1,2-a]pyridine-3-carboxamide], the minimal effective concentration was 0.3 µM.
Compound `Cc1nc2c(OCc3c(F)cccc3F)cccn2c1C(=O)NC(CO)CCC(O)C(F)(F)F` (single isomer, unassigned) [Example 138, 8-[(2,6-Difluorobenzyl)oxy]-2-methyl-N-(6,6,6-trifluoro-1,5-dihydroxyhexan-2-yl)imidazo[1,2-a]-pyridine-3-carboxamide] has a minimal effective concentration of 0.1 µM.
